Results taken from the Kinase Knowledgebase extract (Sharma et al. 2016).
pEC50, pIC50: −log10 of the molar value. “And” between values parts separate entries of the source, which are not always exact repeats. Identical values can stand only once.

Assays:
ROCK2 (human) [1] = target: ROCK2 (human) (UniProt O75116); assay: Enzyme Assay
ROCK2 (human) [2] = target: ROCK2 (human) (UniProt O75116); assay: Enzyme Assay; remark: listed apart in the source
EGFR [3] = target: EGFR (UniProt P00533)
MAPK14 (human) [4] = target: MAPK14 (human) (UniProt Q16539); assay: Inhibition of MAPK14 Kinase Activity
MAPK14 (human), sequence (Q16539 whole entry, looked up): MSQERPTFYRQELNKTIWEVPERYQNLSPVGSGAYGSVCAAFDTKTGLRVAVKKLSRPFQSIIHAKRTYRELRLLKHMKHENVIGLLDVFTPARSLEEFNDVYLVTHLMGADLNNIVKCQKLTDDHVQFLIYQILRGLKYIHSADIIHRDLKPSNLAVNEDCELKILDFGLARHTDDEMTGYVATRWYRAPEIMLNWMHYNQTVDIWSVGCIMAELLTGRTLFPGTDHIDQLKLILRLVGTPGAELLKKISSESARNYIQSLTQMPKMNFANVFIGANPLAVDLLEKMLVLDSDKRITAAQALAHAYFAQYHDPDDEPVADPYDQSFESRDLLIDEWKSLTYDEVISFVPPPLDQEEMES

EGFR (human) [5] = target: EGFR (human) (UniProt P00533); conditions: a431
EGFR (human), sequence (P00533 whole entry, looked up): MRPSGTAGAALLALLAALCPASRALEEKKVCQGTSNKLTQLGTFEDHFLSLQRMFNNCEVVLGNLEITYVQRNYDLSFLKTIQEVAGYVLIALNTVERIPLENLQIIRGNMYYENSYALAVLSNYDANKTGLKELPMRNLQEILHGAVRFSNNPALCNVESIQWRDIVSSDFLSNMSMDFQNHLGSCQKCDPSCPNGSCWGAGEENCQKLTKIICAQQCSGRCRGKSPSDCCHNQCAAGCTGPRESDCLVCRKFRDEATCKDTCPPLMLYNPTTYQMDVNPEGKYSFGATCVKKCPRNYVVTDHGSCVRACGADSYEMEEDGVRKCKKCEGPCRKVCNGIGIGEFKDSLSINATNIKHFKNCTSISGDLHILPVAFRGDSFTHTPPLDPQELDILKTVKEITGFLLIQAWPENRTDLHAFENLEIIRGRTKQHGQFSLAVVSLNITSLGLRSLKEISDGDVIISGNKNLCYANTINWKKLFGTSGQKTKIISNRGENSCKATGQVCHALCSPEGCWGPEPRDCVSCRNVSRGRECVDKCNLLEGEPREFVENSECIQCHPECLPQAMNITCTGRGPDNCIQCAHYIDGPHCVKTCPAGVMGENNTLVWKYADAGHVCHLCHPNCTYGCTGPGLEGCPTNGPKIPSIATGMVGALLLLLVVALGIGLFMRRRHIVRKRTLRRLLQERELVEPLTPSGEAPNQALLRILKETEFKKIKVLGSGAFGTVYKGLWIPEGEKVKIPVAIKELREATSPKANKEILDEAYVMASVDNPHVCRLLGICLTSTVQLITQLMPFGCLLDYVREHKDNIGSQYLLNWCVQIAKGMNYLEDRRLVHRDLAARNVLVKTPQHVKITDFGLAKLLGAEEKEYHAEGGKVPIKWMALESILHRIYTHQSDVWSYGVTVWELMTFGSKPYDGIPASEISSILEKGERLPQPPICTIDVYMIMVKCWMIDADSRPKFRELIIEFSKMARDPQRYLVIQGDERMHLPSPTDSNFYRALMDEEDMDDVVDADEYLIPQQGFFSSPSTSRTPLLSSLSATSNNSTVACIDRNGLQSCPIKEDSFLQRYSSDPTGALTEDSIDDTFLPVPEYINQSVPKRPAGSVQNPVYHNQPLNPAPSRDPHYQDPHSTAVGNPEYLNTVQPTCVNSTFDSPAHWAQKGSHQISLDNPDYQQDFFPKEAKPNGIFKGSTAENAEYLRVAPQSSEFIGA

EGFR [6] = target: EGFR (UniProt P00533); remark: listed apart in the source
[7] = target: EGFR (human), P00533 [WT]
EGFR (human) [8] = target: EGFR (human) (UniProt P00533)
EGFR (human) [9] = target: EGFR (human) (UniProt P00533); conditions: a431; remark: listed apart in the source
EGFR (human) [10] = target: EGFR (human) (UniProt P00533); conditions: a549
EGFR (human) [11] = target: EGFR (human) (UniProt P00533); remark: listed apart in the source
PIK3CA (human) [12] = target: PIK3CA (human) (UniProt P42336); assay: Inhibition of PIK3CA Kinase Activity in HeLa Cells
PIK3CA (human), sequence (P42336 whole entry, looked up): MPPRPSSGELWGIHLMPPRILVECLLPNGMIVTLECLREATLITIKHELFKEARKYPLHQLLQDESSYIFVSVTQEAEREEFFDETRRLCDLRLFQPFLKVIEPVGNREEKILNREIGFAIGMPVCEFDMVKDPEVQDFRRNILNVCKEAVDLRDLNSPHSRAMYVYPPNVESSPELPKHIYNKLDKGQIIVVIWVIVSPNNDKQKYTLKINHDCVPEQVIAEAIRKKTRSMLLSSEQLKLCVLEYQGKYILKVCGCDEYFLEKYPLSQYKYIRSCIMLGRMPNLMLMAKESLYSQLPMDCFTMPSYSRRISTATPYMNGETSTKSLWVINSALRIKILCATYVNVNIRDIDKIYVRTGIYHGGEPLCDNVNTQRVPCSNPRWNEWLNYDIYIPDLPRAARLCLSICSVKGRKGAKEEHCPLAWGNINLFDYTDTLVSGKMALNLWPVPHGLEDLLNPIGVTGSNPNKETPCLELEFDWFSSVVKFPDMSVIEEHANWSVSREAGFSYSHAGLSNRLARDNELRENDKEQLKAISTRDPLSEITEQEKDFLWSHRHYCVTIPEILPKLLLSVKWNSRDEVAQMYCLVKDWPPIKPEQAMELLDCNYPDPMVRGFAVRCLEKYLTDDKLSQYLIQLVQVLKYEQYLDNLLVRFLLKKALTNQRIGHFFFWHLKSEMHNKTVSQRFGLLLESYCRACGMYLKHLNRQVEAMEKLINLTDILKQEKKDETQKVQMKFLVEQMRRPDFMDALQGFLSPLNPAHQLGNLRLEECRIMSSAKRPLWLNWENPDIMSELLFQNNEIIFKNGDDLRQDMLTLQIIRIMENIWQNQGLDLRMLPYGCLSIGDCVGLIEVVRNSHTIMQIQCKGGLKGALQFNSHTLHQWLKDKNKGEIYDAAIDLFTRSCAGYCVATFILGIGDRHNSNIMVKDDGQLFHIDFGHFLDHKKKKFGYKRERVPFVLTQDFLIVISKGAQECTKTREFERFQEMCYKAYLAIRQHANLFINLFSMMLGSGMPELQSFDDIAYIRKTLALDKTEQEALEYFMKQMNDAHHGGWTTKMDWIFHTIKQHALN

EGFR (human) [13] = target: EGFR (human) (UniProt P00533); conditions: A431
EGFR (human) [14] = target: EGFR (human) (UniProt P00533); conditions: a431; remark: listed apart in the source
EGFR (human) [15] = target: EGFR (human) (UniProt P00533); remark: listed apart in the source
EGFR (human) [16] = target: EGFR (human) (UniProt P00533); remark: listed apart in the source
MAPK14 [17] = target: MAPK14 (UniProt Q16539); assay: Inhibition of MAPK14 Kinase Activity (Binding Assay)
MAPK14, sequence (Q16539 whole entry, looked up): as the sequence (Q16539 whole entry, looked up) above

MAPK14 [18] = target: MAPK14 (UniProt Q16539); assay: Inhibition of MAPK14 Kinase Activity (Spectrophometric Assay)
EGFR (human) [19] = target: EGFR (human) (UniProt P00533); conditions: a431; remark: listed apart in the source
MAPK14 (human) [20] = target: MAPK14 (human) (UniProt Q16539); assay: Enzyme Assay
MAPK14 (human) [21] = target: MAPK14 (human) (UniProt Q16539); assay: Enzyme Assay; remark: listed apart in the source
EGFR [22] = target: EGFR (UniProt P00533); remark: listed apart in the source
CDK2 (human) = CDK2 (human) (UniProt P24941)
[23] = target: PIK3CA (human), P42336 [Assessment of PIK3CA (Mutant) Kinase Activity in MCF-7.1 Cell Line]; assay: Assessment of PIK3CA (Mutant) Kinase Activity in MCF-7.1 Cell Line; conditions: mcf-7
PIK3CA (human), P42336 [Assessment of PIK3CA (Mutant) Kinase Activity in MCF-7.1 Cell Line], sequence (P42336 whole entry, looked up, change not shown): as the sequence (P42336 whole entry, looked up) above

EGFR (human) [24] = target: EGFR (human) (UniProt P00533); remark: listed apart in the source
EGFR (human) [25] = target: EGFR (human) (UniProt P00533); conditions: hn5
EGFR (human) [26] = target: EGFR (human) (UniProt P00533); remark: listed apart in the source
CDK2 [27] = target: CDK2 (UniProt P24941); assay: Enzyme Assay
CDK2 [28] = target: CDK2 (UniProt P24941); assay: Enzyme Assay; remark: listed apart in the source
EGFR (human) [29] = target: EGFR (human) (UniProt P00533); conditions: hn5; remark: listed apart in the source
EGFR (human) [30] = target: EGFR (human) (UniProt P00533); remark: listed apart in the source
PIK3CA (human) [31] = target: PIK3CA (human) (UniProt P42336); assay: Inhibition of PIK3CA Kinase Activity (FP Assay)
[32] = target: PIK3CA (human), P42336 [Wild-Type]; assay: Assessment of Proliferation of NZB5 Cells Expressing Wild-Type PIK3CA Kinase
PIK3CA (human), P42336 [Wild-Type], sequence (P42336 whole entry, looked up): as above

MAPK14 [33] = target: MAPK14 (UniProt Q16539); assay: CSBP binding - Inhibition of RBL-1 5 Lipoxygenase Enzyme Assay
MAPK14 [34] = target: MAPK14 (UniProt Q16539); assay: CSBP binding - Inhibition of Prostaglandin H Synthase Type-1 Enzyme Assay

EGFR, sequence (P00533 whole entry, looked up): as the sequence (P00533 whole entry, looked up) above

Structure (SMILES): CC(C)OC(=O)Cc1cccc(NC(=O)c2cccc(-c3cc(C(=O)Nc4ccncc4F)ccc3CN)c2)c1
- pIC50 (ROCK2 (human) [1]): > 9.00
- pIC50 (ROCK2 (human) [2]): > 9.00

Structure (SMILES): COc1ccc(C#CC(C)(C)N)cc1-c1n[nH]c2nc(Nc3ccc(F)cc3F)ccc12
- inhibition (EGFR [3]; concentration not given here): -43%

Structure (SMILES): N#Cc1cnc2cnc(NCc3cccnc3)cc2c1NC1CCCCCC1
- pIC50 (MAPK14 (human) [4]): < 4.40
- pIC50 (EGFR (human) [5]): < 4.40

Structure (SMILES): CN1CCC(Oc2cccc3ncnc(Nc4ccc(OCc5cscn5)c(Cl)c4)c23)CC1
- pIC50 (EGFR [6]): 6.55

Structure (SMILES): Brc1cccc(Nc2ccnc3ccccc23)c1
- pIC50 [7]: 5.26

Structure (SMILES): Cc1cc(N2CCN(CCC#N)CC2)cc2[nH]c(-c3c(NC[C@@H](O)c4ccccc4Cl)cc[nH]c3=O)nc12
- pIC50 (EGFR (human) [8]): < 5.00

Structure (SMILES): COc1cc(O)c2c(=O)n(-c3cccc(C(=O)NC4CCCC4)c3)ccc2c1
- pIC50 (EGFR (human) [9]): 5.65
- pIC50 (EGFR (human) [10]): 4.85
- pIC50 (EGFR (human) [11]): 5.86

Structure (SMILES): Nc1nc(N)c2c(n1)[nH]c1cccc(Sc3ccccc3)c12
- pEC50 (PIK3CA (human) [12]): 4.67
- pIC50 (EGFR (human) [13]): 4.31

Structure (SMILES): C#Cc1cccc(Nc2c([N+](=O)[O-])cnc3cc(OCc4ccccc4)c(OC)cc23)c1
- pIC50 (EGFR (human) [14]): 6.31

Structure (SMILES): CN(C/C=C/C(=O)Nc1cccc(-n2nc(-c3ccc(Cl)cc3)c3c(N)ncnc32)c1)C1CC1
- pIC50 (EGFR (human) [15]): 6.00 to 7.00

Structure (SMILES): CS(=O)(=O)CCNCc1ccc(-c2ccc3ncnc(Nc4ccc(OCc5cccc(F)c5)c(Br)c4)c3c2)o1
- pIC50 (EGFR (human) [16]): > 7.00

Structure (SMILES): CC12CC(C(=O)O)CC(C)(C1)C(=O)N(Cc1cccc(-n3nc(C(C)(C)C)cc3NC(=O)Nc3cccc4ccccc34)c1)C2=O (centres undefined)
- pIC50 (MAPK14 [17]): 5.67
- pIC50 (MAPK14 [18]): 6.02

Structure (SMILES): COc1ccc(-c2[nH]nc3c2C(=O)c2c(NC(=O)Nc4ccc(O)cc4)cccc2-3)cc1
- GI50 (EGFR (human) [19]): > 10 µM

Structure (SMILES): COc1ccc(C#CC(C)(C)O)cc1-c1n[nH]c2nc(Nc3ccc(F)cc3F)ncc12
- pIC50 (EGFR [3]): 5.28

Structure (SMILES): Cc1cccc(COc2nc(C)n(-c3cc(-c4ccnc(C(C)(C)O)n4)ccc3C)c(=O)c2Cl)n1
- pIC50 (MAPK14 (human) [20]): 6.74
- pIC50 (MAPK14 (human) [21]): < 4.52 and 5.48

Structure (SMILES): COC1=CC(=O)C(Nc2ncnc3cc(OCC4CCN(C)CC4)c(OC)cc23)=CC1=O
- pIC50 (EGFR [22]): 3.70 to 5.66

Structure (SMILES): O=C1Nc2ccc3ncsc3c2C1=NNc1ccc(S(=O)(=O)O)cc1
- pIC50 (CDK2 (human)): 6.27

Structure (SMILES): Cc1nc(N)ncc1-c1nc(N2CCOCC2)c2sc(CN3CCN(S(C)(=O)=O)CC3)cc2n1
- pIC50 [23]: 6.54

Structure (SMILES): N#Cc1cnc2ccc(NCc3c[nH]cn3)cc2c1Nc1ccc(F)c(Cl)c1
- pIC50 (EGFR (human) [5]): 7.52

Structure (SMILES): O=S(=O)(CCNCc1ccc(-c2ccc3ncnc(Nc4ccc(OCc5cccc(F)c5)c(Cl)c4)c3c2)o1)c1ccccn1
- pIC50 (EGFR (human) [24]): 7.72
- pIC50 (EGFR (human) [25]): 5.81

Structure (SMILES): Nc1nc(Nc2ccccc2)c2c(n1)[nH]c1ccccc12
- pIC50 (EGFR (human) [26]): 6.83

Structure (SMILES): COc1ccc2cnc(Nc3ccc(N4CCCCC4)cc3)nc2c1C(C)C
- pIC50 (CDK2 [27]): 6.58
- pIC50 (CDK2 [28]): 5.39

Structure (SMILES): OCc1ccc(-c2cc3ncnc(Nc4ccc(OCc5cccc(F)c5)c(Cl)c4)c3s2)o1
- pIC50 (EGFR (human) [29]): 7.00

Structure (SMILES): Nc1nc(Nc2cccc(Cl)c2)c2c(n1)[nH]c1ccccc12
- pIC50 (EGFR (human) [26]): 8.22

Structure (SMILES): CN1CCC(Oc2cccc3ncnc(Nc4ccc(OCc5ccccn5)c(Cl)c4)c23)CC1
- pIC50 (EGFR [6]): 6.96

Structure (SMILES): N#Cc1cnc2cc3c(cc2c1Nc1ccc(F)c(Cl)c1)N(C(=O)/C=C/CBr)CCO3
- pIC50 (EGFR (human) [30]): 6.00

Structure (SMILES): CS(=O)(=O)CCNCc1cc(-c2cc3ncnc(Nc4ccc(OCc5cccc(F)c5)c(Cl)c4)c3s2)cs1
- pIC50 (EGFR (human) [29]): 7.00

Structure (SMILES): N=C(N)NS(=O)(=O)c1ccc(NC2=Cc3ccc(C(=O)c4c(Cl)cccc4Cl)cc3C2)cc1
- pIC50 (CDK2 (human)): 6.60

Structure (SMILES): C=CC(=O)Nc1ccc(-n2nc(-c3ccc(Cl)c(Cl)c3)c3c(N)ncnc32)cc1
- pIC50 (EGFR (human) [15]): > 7.00

Structure (SMILES): COC[C@H]1OC(=O)/C(=C/N(CCN(C)C)C(C)(C)C)C2=C(O)C(=O)C3=C([C@H](OC(C)=O)C[C@@]4(C)C3CC[C@@H]4O)[C@]21C (some centres undefined)
- pIC50 (PIK3CA (human) [31]): 8.02

Structure (SMILES): Oc1cccc2c1nc(C(F)F)n2-c1nc(N2CCOCC2)cc(N2CCOCC2)n1
- pIC50 [32]: 7.00

Structure (SMILES): Cc1ccc(Sc2cccc3[nH]c4nc(N)nc(N)c4c23)cc1
- pEC50 (PIK3CA (human) [12]): 4.91
- pIC50 (EGFR (human) [13]): 4.85

Structure (SMILES): Clc1ccc(-c2ncn(CCCN3CCOCC3)c2-c2ccncc2)cc1Cl
- pIC50 (MAPK14 [33]): < 4.00
- pIC50 (MAPK14 [34]): < 4.00
